Results published in patent publication US20240043403A1, “HETEROARYL CARBOXAMIDE COMPOUND” (Astellas Pharma Inc., priority 2020, published 2024).
Counter-ions that a name gives are not always drawn.

target: human recombinant DGK ξ (Homo sapiens (Human), UniProt Q13574); test: Evaluation of DGK ξ inhibitory effect (ADP-Glo Kinase Assay); format: biochemical; settings: ADP-Glo luminescence
Procedure: Test Example 1. Evaluation of DGK ξ Inhibitory Effect
The inhibitory effect of a test compound on human recombinant DGK ξ (Cama Biosciences, Inc., 12-410-20N) was examined by the following method in which detection is performed with ADP-Glo™ Kinase Assay (Promega Corporation).
To a 384-well plate (Greiner Bio-One Co., Ltd.), 3 μL of a DGK ξ enzyme dissolved in an assay buffer (40 mM Tris-HCl pH 7.5, 10 mM MgCl2, 1 mM dithiothreitol (DTT) and 0.1 mg/mL bovine serum albumin (BSA)) (90 ng/mL) was added, and 3 μL of the test compound diluted with the same assay buffer was added so that an intended final concentration was obtained. The mixture was left standing at room temperature for 15 minutes, 3 μL of a substrate (150 μM 1-oleoyl-2-acetyl-sn-glycerol (Sigma-Aldrich Co. LLC), 480 μM phosphatidylserine (Avanti, Inc.) and 150 μM UltraPure-ATP (attached to ADP-Glo)) was then added, and the mixture was left standing at room temperature for 30 minutes to react. Thereafter, 3 μL of an ADP-Glo Reagent was added, and the mixture was left standing at room temperature for 40 minutes to stop the enzyme reaction. Further, 6 μL of a Kinase-Detection Reagent was added, the mixture was left standing at room temperature for 30 minutes, and the luminescence was then measured using ARVO X3 (PerkinElmer, Inc.). The half maximal inhibitory concentration (IC50) was calculated by Sigmoid-Emax model non-linear regression analysis, where the signal value in solvent treatment was set to 0% inhibition and the signal value without addition of the DGK ξ enzyme was set to 100% inhibition. […] In the table. Ex represents the number of each Example described below.

Chain of human recombinant DGK ξ (Q13574 whole entry): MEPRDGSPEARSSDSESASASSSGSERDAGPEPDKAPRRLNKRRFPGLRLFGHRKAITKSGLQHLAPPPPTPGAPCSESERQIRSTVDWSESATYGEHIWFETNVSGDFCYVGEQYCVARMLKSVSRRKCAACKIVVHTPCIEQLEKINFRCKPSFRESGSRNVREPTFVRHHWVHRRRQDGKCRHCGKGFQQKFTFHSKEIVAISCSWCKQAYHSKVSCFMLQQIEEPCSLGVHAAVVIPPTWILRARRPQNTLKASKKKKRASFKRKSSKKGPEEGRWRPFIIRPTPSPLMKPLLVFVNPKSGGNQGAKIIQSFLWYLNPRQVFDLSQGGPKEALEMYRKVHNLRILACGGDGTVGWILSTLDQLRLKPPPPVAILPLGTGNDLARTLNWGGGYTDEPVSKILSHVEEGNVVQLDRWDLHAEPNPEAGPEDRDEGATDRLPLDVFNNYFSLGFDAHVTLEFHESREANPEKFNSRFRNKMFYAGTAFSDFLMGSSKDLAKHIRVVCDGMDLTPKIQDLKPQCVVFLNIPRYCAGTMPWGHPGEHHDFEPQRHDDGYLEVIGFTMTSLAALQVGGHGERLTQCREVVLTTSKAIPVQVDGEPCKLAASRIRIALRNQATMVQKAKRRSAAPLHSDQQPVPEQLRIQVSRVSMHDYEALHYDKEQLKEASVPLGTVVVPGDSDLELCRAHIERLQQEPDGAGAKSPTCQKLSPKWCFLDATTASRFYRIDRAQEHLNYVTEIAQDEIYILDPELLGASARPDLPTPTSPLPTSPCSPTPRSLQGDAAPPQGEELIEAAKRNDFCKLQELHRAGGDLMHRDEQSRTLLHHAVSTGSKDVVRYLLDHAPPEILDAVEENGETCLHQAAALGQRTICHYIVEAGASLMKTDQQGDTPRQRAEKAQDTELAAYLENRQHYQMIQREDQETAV

Row | IC50 [nM] | SMILES
1 | 28 | NC[C@@H]1CCCN(c2c(NC(=O)c3ccn(CC(F)F)n3)ccc(Oc3ccccc3)c2C(F)(F)F)C1 [Example 2]
2 | 150 | NC[C@@H]1CCCN(c2c(NC(=O)c3ccn(C(F)F)n3)ccc(Oc3ccccc3)c2C(F)(F)F)C1 [Example 3]
3 | 170 | NC[C@@H]1CCCN(c2c(NC(=O)c3ccn(CC(F)F)n3)ccc(OC3CCCC3)c2C(F)(F)F)C1 [Example 4]
4 | 330 | NC[C@@H]1CCCN(c2c(NC(=O)c3ccn(CC(F)F)n3)ccc(OC3CC3)c2C(F)(F)F)C1 [Example 5]
5 | 57 | NC[C@@H]1CCCN(c2c(NC(=O)c3ccn(CC(F)F)n3)ccc(Oc3ccccc3F)c2F)C1 [Example 6]
6 | 88 | NC[C@@H]1CCCN(c2c(NC(=O)c3ccn(CC(F)F)n3)ccc(Oc3ccc(F)cc3)c2C(F)(F)F)C1 [Example 8]
7 | 9.3 | NC[C@@H]1CCCN(c2c(NC(=O)c3ccn(CC(F)F)n3)ccc(Oc3ccccc3Cl)c2C(F)(F)F)C1 [Example 9]
8 | 93 | O=C(Nc1ccc(Oc2ccccc2F)c(C(F)(F)F)c1N1CCC[C@@H](CNC2CC2)C1)c1ccn(CC(F)F)n1 [Example 10]
9 | 35 | NC[C@@H]1CCCN(c2c(NC(=O)c3cccn(CC(F)F)c3=O)ccc(Oc3ccccc3F)c2C(F)(F)F)C1 [Example 11]
10 | 150 | CNC[C@H]1CN(c2c(NC(=O)c3ccn(CC(F)F)n3)ccc(C3CCCC3)c2C(F)(F)F)CCN1C [Example 14]
11 | 99 | CN1CCN(c2c(NC(=O)c3cccn(CC(F)F)c3=O)ccc(Oc3ccccc3Cl)c2C(F)(F)F)C[C@@H]1CN [Example 15]
12 | 73 | CN1CCN(c2c(NC(=O)c3cccn(CC(F)F)c3=O)ccc(Oc3ccccc3F)c2C(F)(F)F)C[C@@H]1CN [Example 16]
13 | 190 | CN1CCN(c2c(NC(=O)c3ccn(CC(F)F)n3)ccc(OC3CCC3)c2C(F)(F)F)C[C@@H]1CN [Example 17]
14 | 130 | CN1CCN(c2c(NC(=O)c3ccn(CC(F)F)n3)ccc(Oc3ccc(F)cc3F)c2C(F)(F)F)C[C@@H]1CN [Example 18]
15 | 960 | CN1CCN(c2c(NC(=O)c3ccn(CC(F)F)n3)ccc(Oc3ccccc3F)c2C(F)(F)F)C[C@H]1CN [Example 19]
16 | 1100 | CN1CCN(c2c(NC(=O)c3cccn(CC(F)F)c3=O)ccc(Oc3ccccc3F)c2C(F)(F)F)C[C@H]1CN [Example 21]
17 | 18 | CNC[C@H]1CN(c2c(NC(=O)c3coc(-c4ccnnc4)n3)ccc(Oc3ccccc3F)c2C(F)(F)F)CCN1C [Example 22, N-[4-(2-fluorophenoxy)-2-{(3S)-4-methyl-3-[(methylamino)methyl]piperazin-yl}-3-(trifluoromethyl)phenyl]-2-(pyridazin-4-yl)-1,3-oxazole-4-carboxamide trihydrochloride]
18 | 63 | CNC[C@H]1CN(c2c(NC(=O)c3ccn(CC(F)F)n3)ccc(Oc3ccccc3F)c2C(F)(F)F)CCN1C [Example 23]
19 | 36 | CNC[C@H]1CN(c2c(NC(=O)c3ccn(CC(F)F)n3)ccc(Oc3ccccc3Cl)c2C(F)(F)F)CCN1C [Example 24]
20 | 73 | CNC[C@H]1CN(c2c(NC(=O)c3ccn(CC(F)F)n3)ccc(Oc3ccccc3F)c2F)CCN1C [Example 25]
21 | 19 | CNC[C@H]1CN(c2c(NC(=O)c3ccn(CC(F)F)n3)ccc(Oc3ccccc3Cl)c2Cl)CCN1C [Example 26]
22 | 37 | CNC[C@H]1CN(c2c(NC(=O)c3ccn(CC(F)F)n3)ccc(Oc3ccccc3F)c2Cl)CCN1C [Example 27]
23 | 240 | CN1CCN(c2c(NC(=O)c3ccn(CC(F)F)n3)ccc(Oc3ccc(F)cc3)c2C(F)(F)F)C[C@@H]1CN [Example 28]
24 | 23 | NC[C@@H]1CCCN(c2c(NC(=O)c3ccn(-c4ccnnc4)n3)ccc(Oc3ccccc3)c2C(F)(F)F)C1 [Example 31]
25 | 100 | N#Cc1ccccc1Oc1ccc(NC(=O)c2ccn(CC(F)F)n2)c(N2CCC[C@@H](CN)C2)c1C(F)(F)F [Example 32]
26 | 4.8 | NC[C@@H]1CCCN(c2c(NC(=O)c3ccn(-c4ccnnc4)n3)ccc(Oc3ccccc3Cl)c2C(F)(F)F)C1 [Example 33]
